# From patent US11779550B2, “Bisphenol ether derivatives and methods for using the same” (THE UNIVERSITY OF BRITISH COLUMBIA, priority 2015, dated 2023)
# Like-named read-outs stand apart in the source and are kept apart here.
# Target: T1, androgen receptor (AR) (Homo sapiens, UniProt P10275, T878A)
# T1 construct: endogenous in cells; host or cells: LNCaP
# T1 sequence (P10275 1-920 T878A): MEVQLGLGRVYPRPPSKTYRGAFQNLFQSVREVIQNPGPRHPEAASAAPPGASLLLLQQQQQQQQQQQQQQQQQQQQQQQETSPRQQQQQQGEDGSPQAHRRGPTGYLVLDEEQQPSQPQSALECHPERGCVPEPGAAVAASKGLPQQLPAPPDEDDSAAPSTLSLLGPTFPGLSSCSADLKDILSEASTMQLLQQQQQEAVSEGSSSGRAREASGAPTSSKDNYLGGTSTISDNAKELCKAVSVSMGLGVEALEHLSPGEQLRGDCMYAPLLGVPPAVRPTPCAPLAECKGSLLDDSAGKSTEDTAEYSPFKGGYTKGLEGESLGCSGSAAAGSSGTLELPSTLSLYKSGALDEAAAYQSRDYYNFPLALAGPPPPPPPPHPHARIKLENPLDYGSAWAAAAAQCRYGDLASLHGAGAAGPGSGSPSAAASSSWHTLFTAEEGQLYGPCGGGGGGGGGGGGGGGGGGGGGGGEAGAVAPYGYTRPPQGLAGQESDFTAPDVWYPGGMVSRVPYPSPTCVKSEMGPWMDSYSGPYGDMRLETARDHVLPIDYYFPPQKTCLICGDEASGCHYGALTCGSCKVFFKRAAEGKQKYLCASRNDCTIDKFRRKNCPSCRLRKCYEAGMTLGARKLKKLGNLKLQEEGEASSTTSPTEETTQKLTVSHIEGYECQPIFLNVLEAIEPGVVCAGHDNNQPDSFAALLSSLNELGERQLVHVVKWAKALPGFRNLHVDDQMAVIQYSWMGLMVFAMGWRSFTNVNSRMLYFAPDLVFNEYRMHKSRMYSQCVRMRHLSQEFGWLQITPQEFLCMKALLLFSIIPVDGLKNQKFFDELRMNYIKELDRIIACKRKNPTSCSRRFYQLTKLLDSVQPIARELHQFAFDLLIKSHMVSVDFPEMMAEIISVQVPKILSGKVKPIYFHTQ
# Experiment: PSA (6.1 kb)-luciferase reporter assay in LNCaP cells induced with R1881
# Assay type: cell-based
# Details: LNCaP cells transfected with PSA (6.1 kb)-luciferase, 1 h pre-treatment, R1881 (1 nM) 24 h
# Protocol: LNCaP cells were transiently transfected with PSA (6.1 kb)-luciferase for 24 h prior to pre-treatment with compounds of the invention (e.g., Compound 1c) ranging in concentration from 62.5 ng/ml to 1.5 ug/ml for 1 hour before the addition of vehicle, or synthetic androgen, R1881 (1 nM) to induce luciferase production. After 24 h of incubation with R1881, the cells were harvested, and relative luciferase activities were determined. To determine the IC50, treatments were normalized to the predicted maximal activity induction (in the absence of test compounds, vehicle only).
compound,measurement,setting,value
"CC(C)(c1ccc(OC[C@H](O)CO)cc1)c1ccc(OC[C@@H](Cl)CO)cc1 [Compound 1c, (R)-3-(4-(2-(4-((S)-2-chloro-3-hydroxypropoxy)phenyl)propan-2-yl)phenoxy)propane-1,2-diol]",IC50,"Trial 1, read-out: IC50, Trial 1",14 µM
same,IC50,"Trial 2, read-out: IC50, Trial 2",19.4 µM
same,IC50,"Trial 3, read-out: IC50, Trial 3",17 µM
same,IC50,"Trial 4, read-out: IC50, Trial 4",15.8 µM
same,IC50,"average of trials, read-out: Average IC50",16.7 ± 2.68 µM
